# Data: PubChem BioAssay (NCI)
#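 Cells were grown in 96-well plates and exposed to each compound for 48 hours at five concentrations; endpoints were interpolated linearly between bracketing concentrations, or set to the highest concentration if not reached. GI50 marks 50% less growth. Definition used: TGI = concentration required for complete inhibition of growth.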
# Assays:
# Test in all cases: NCI tumour cell line growth inhibition, 48 h
# HOP-62 NSCLC = tested on: HOP-62 NSCLC
# SF-295 CNS = tested on: SF-295 CNS
# OVCAR-8 ovarian = tested on: OVCAR-8 ovarian
# IGROV1 ovarian = tested on: IGROV1 ovarian
# HL-60(TB) leukemia = tested on: HL-60(TB) leukemia
# A498 renal = tested on: A498 renal
# PC-3 prostate = tested on: PC-3 prostate
# ACHN renal = tested on: ACHN renal
# T-47D breast = tested on: T-47D breast
# CCRF-CEM leukemia = tested on: CCRF-CEM leukemia
# EKVX NSCLC = tested on: EKVX NSCLC
# NCI/ADR-RES ovarian = tested on: NCI/ADR-RES ovarian
# RPMI-8226 leukemia = tested on: RPMI-8226 leukemia
# BT-549 breast = tested on: BT-549 breast
# SNB-19 CNS = tested on: SNB-19 CNS
# NCI-H460 lung = tested on: NCI-H460 lung
# COLO 205 colon = tested on: COLO 205 colon
# OVCAR-5 ovarian = tested on: OVCAR-5 ovarian
# UACC-257 melanoma = tested on: UACC-257 melanoma
# DU-145 prostate = tested on: DU-145 prostate
# SK-OV-3 ovarian = tested on: SK-OV-3 ovarian
# U251 CNS = tested on: U251 CNS
# 786-0 renal = tested on: 786-0 renal
# LOX IMVI melanoma = tested on: LOX IMVI melanoma
# SF-268 CNS = tested on: SF-268 CNS
# SW-620 colon = tested on: SW-620 colon
# NCI-H522 lung = tested on: NCI-H522 lung
# UACC-62 melanoma = tested on: UACC-62 melanoma
# SK-MEL-5 melanoma = tested on: SK-MEL-5 melanoma
# OVCAR-3 ovarian = tested on: OVCAR-3 ovarian
# HS 578T breast = tested on: HS 578T breast
# MALME-3M melanoma = tested on: MALME-3M melanoma
# CAKI-1 renal = tested on: CAKI-1 renal
# MDA-MB-435 = tested on: MDA-MB-435
# MOLT-4 leukemia = tested on: MOLT-4 leukemia
# TK-10 renal = tested on: TK-10 renal
# RXF 393 renal = tested on: RXF 393 renal
# KM12 colon = tested on: KM12 colon
# NCI-H226 lung = tested on: NCI-H226 lung
# SK-MEL-28 melanoma = tested on: SK-MEL-28 melanoma
# M14 melanoma = tested on: M14 melanoma
# NCI-H23 lung = tested on: NCI-H23 lung
# SR leukemia = tested on: SR leukemia
# HT29 colon = tested on: HT29 colon
# MDA-MB-468 breast = tested on: MDA-MB-468 breast
# HCT-15 colon = tested on: HCT-15 colon
# K-562 leukemia = tested on: K-562 leukemia
# MCF7 breast = tested on: MCF7 breast
# A549 NSCLC = tested on: A549 NSCLC
# HCT-116 colon = tested on: HCT-116 colon
# SN12C renal = tested on: SN12C renal
# SF-539 CNS = tested on: SF-539 CNS
# OVCAR-4 ovarian = tested on: OVCAR-4 ovarian
# HCC-2998 colon = tested on: HCC-2998 colon
# HOP-92 NSCLC = tested on: HOP-92 NSCLC
smiles,measurement,setting,value
CC[C@]12C=CCN3CC[C@@]4(c5ccc(OC)cc5N(C)[C@H]4[C@@](O)(C(=O)OC)[C@@H]1OC(=O)CCCC[P+](C1CCCCC1)(C1CCCCC1)C1CCCCC1)[C@@H]32,GI50,HOP-62 NSCLC,3.9 µM
same,TGI,HOP-62 NSCLC,13.8 µM
same,GI50,SF-295 CNS,4.4 µM
same,TGI,SF-295 CNS,16.1 µM
same,GI50,OVCAR-8 ovarian,2.93 µM
same,TGI,OVCAR-8 ovarian,11.9 µM
same,GI50,IGROV1 ovarian,1.36 µM
same,TGI,IGROV1 ovarian,4.66 µM
same,GI50,HL-60(TB) leukemia,0.293 µM
same,TGI,HL-60(TB) leukemia,1.41 µM
same,GI50,A498 renal,13.3 µM
same,TGI,A498 renal,27.4 µM
same,GI50,PC-3 prostate,1.46 µM
same,TGI,PC-3 prostate,10.4 µM
same,GI50,ACHN renal,16 µM
same,TGI,ACHN renal,29.6 µM
same,GI50,T-47D breast,0.92 µM
same,TGI,T-47D breast,11.2 µM
same,GI50,CCRF-CEM leukemia,2.55 µM
same,TGI,CCRF-CEM leukemia,10.5 µM
same,GI50,EKVX NSCLC,3.13 µM
same,TGI,EKVX NSCLC,16.2 µM
same,GI50,NCI/ADR-RES ovarian,56.5 µM
same,TGI,NCI/ADR-RES ovarian,> 100 µM
same,GI50,RPMI-8226 leukemia,0.412 µM
same,TGI,RPMI-8226 leukemia,2.01 µM
same,GI50,BT-549 breast,2.45 µM
same,TGI,BT-549 breast,6.55 µM
same,GI50,SNB-19 CNS,1.92 µM
same,TGI,SNB-19 CNS,11.3 µM
same,GI50,NCI-H460 lung,2.71 µM
same,TGI,NCI-H460 lung,12.2 µM
same,GI50,COLO 205 colon,0.377 µM
same,TGI,COLO 205 colon,1.23 µM
same,GI50,OVCAR-5 ovarian,3.19 µM
same,TGI,OVCAR-5 ovarian,12.1 µM
same,GI50,UACC-257 melanoma,1.57 µM
same,TGI,UACC-257 melanoma,3.9 µM
same,GI50,DU-145 prostate,3.65 µM
same,TGI,DU-145 prostate,14.8 µM
same,GI50,SK-OV-3 ovarian,2.28 µM
same,TGI,SK-OV-3 ovarian,6.94 µM
same,GI50,U251 CNS,0.639 µM
same,TGI,U251 CNS,12.4 µM
same,GI50,786-0 renal,5.43 µM
same,TGI,786-0 renal,18.9 µM
same,GI50,LOX IMVI melanoma,2.9 µM
same,TGI,LOX IMVI melanoma,10.9 µM
same,GI50,SF-268 CNS,3.17 µM
same,TGI,SF-268 CNS,12.9 µM
same,GI50,SW-620 colon,2.75 µM
same,TGI,SW-620 colon,15.1 µM
same,GI50,NCI-H522 lung,0.643 µM
same,TGI,NCI-H522 lung,6.79 µM
same,GI50,UACC-62 melanoma,1.53 µM
same,TGI,UACC-62 melanoma,3.64 µM
same,GI50,SK-MEL-5 melanoma,1.88 µM
same,TGI,SK-MEL-5 melanoma,3.74 µM
same,GI50,OVCAR-3 ovarian,1.93 µM
same,TGI,OVCAR-3 ovarian,10.9 µM
same,GI50,HS 578T breast,2.61 µM
same,TGI,HS 578T breast,8.67 µM
same,GI50,MALME-3M melanoma,1.63 µM
same,TGI,MALME-3M melanoma,3.7 µM
same,GI50,CAKI-1 renal,16.7 µM
same,TGI,CAKI-1 renal,30.6 µM
same,GI50,MDA-MB-435,2.62 µM
same,TGI,MDA-MB-435,10.7 µM
same,GI50,MOLT-4 leukemia,1.72 µM
same,TGI,MOLT-4 leukemia,7.9 µM
same,GI50,TK-10 renal,3.08 µM
same,TGI,TK-10 renal,14.9 µM
same,GI50,RXF 393 renal,1.24 µM
same,TGI,RXF 393 renal,5.4 µM
same,GI50,KM12 colon,1.72 µM
same,TGI,KM12 colon,6.34 µM
same,GI50,NCI-H226 lung,4.41 µM
same,TGI,NCI-H226 lung,17.9 µM
same,GI50,SK-MEL-28 melanoma,1.38 µM
same,TGI,SK-MEL-28 melanoma,5.25 µM
same,GI50,M14 melanoma,2.2 µM
same,TGI,M14 melanoma,12 µM
same,GI50,NCI-H23 lung,2.34 µM
same,TGI,NCI-H23 lung,8.99 µM
same,GI50,SR leukemia,1.39 µM
same,TGI,SR leukemia,5.36 µM
same,GI50,HT29 colon,1.43 µM
same,TGI,HT29 colon,3.88 µM
same,GI50,MDA-MB-468 breast,0.378 µM
same,TGI,MDA-MB-468 breast,1.54 µM
same,GI50,HCT-15 colon,16.1 µM
same,TGI,HCT-15 colon,30.5 µM
same,GI50,K-562 leukemia,0.983 µM
same,TGI,K-562 leukemia,16.2 µM
same,GI50,MCF7 breast,1.05 µM
same,TGI,MCF7 breast,8.18 µM
same,GI50,A549 NSCLC,3.13 µM
same,TGI,A549 NSCLC,13.1 µM
same,GI50,HCT-116 colon,2.94 µM
same,TGI,HCT-116 colon,12 µM
same,GI50,SN12C renal,2.77 µM
same,TGI,SN12C renal,9.91 µM
same,GI50,SF-539 CNS,2.85 µM
same,TGI,SF-539 CNS,11 µM
same,GI50,OVCAR-4 ovarian,2.73 µM
same,TGI,OVCAR-4 ovarian,13.8 µM
same,GI50,HCC-2998 colon,1.31 µM
same,TGI,HCC-2998 colon,10.3 µM
same,GI50,HOP-92 NSCLC,1.02 µM
same,TGI,HOP-92 NSCLC,3.9 µM
